# Values quoted from earlier work as cited in patent US8357388B2, “Drug depot implant designs and methods of implantation” (Warsaw Orthopedic, Inc., priority 2006, dated 2013).
# Tested on: PGE2 production
# Settings: in cell culture
smiles,measurement,value
COc1ccc2cc(CC(=O)O)ccc2c1 [6-methoxy-2-napthylacetic acid],PGE2 production and local inflammation,suppress PGE2 production and local inflammation
